Measurements: publication PMC5537602, “TRPA1 channel mediates organophosphate-induced delayed neuropathy” (Cell Discovery, 2017)
“Also recorded” adds a separate entry of the source.

Columns and labels:
[1] = target: T1, hTRPA1 (Homo sapiens, UniProt O75762); experiment: cell-based; type: cell-based
T1 construct: expressed in transfected cells; host or cells: HEK293, transient, EGFP plasmid co-transfected
Procedure: (§1) Human embryonic kidney 293 (HEK293) cells were cultured in DMEM containing 10% (vol/vol) heat-inactivated fetal bovine serum, 100 units ml^−1 penicillin–streptomycin and 2 mM L-glutamine at 37 °C in a humidity-controlled sterile incubator with 5% CO2. All cell culture reagents were purchased from Life Technologies. HEK293 cells were transfected transiently with the corresponding plasmids using lipofectamine 2000 (Life Technologies). Transfection efficiency was monitored by co-transfecting EGFP plasmid which codes for the enhanced green fluorescent protein. Electrophysiological recordings were performed between 24 and 36 h after transfection.
(§2) Whole-cell patch-clamp recordings in DRG neurons (small diameter, […]) and HEK293 cells were operated at room temperature (23–25 °C) using EPC-10 amplifier and Patch Master Software (HEKA). […] Currents were sampled at 10 kHz and low-pass filtered at 2.9 kHz. The internal solution was as follows (in mM): 140 CsCl, 10 HEPES, 5 EGTA, 0.1 CaCl2 and 1 MgCl2, with pH adjusted to 7.2 by CsOH and osmolarity 295–300 mOsm. The calcium-free external solution contained (in mM) 140 NaCl, 5 KCl, 0.5 EGTA, 1 MgCl2, 10 Glucose and 10 HEPES, with pH adjusted to 7.4 by NaOH and osmolarity 300–310 mOsm. The 0.5 mM EGTA was replaced by 2 mM CaCl2 for the recordings in DRG neurons. TRPA1 currents development was monitored with repetitive injections of 300 ms duration voltage ramps from −100 to +100 mV every 2 s and the holding potential was set to 0 mV for 50 ms, existing in both sides of the voltage ramp. To record inward currents in DRG neurons, we conducted voltage clamp at holding membrane potential of −70 mV. Solutions were switched using a gravity-fed continuous focal perfusion system.

[2] = target: T2, rTRPA1 (Rattus norvegicus, UniProt Q6RI86); experiment: Whole-cell patch-clamp, HEK293 cells expressing rTRPA1; type: cell-based
T2 construct: expressed in transfected cells; host or cells: HEK293, transient
Procedure: as §1, §2

[3] = system: mouse DRG neurons; experiment: Whole-cell patch-clamp of small-diameter DRG neurons; type: cell-based
Procedure: DRG neurons were isolated from young C57 BL/6 mice (4–5 weeks). The sections of thoracic and lumbar DRG neurons were rapidly isolated in calcium and magnesium-free PBS with low temperature conditions (ice-bath environment). The isolated tissues were cut into pieces with scissor and incubated for 30 min with 0.1% collagenase and 0.025% trypsin which were diluted by DMEM-F12 at 37 °C. After digestion, neurons were gently dissociated using Pasteur pipettes and then plated onto poly-D-lysine pre-coated glass cover slips. DRG neurons were cultured for 24 h before use.
as §2

[4] = system: mice; experiment: Behavioral testing of mice (paw-licking time after intraplantar injection); type: in vivo, mouse
Procedure: The chosen mice were allowed to acclimate to the experimental environment for at least 2 h before testing. Intraplantar injection of 5% AITC and 30% malathion (10 μl) was achieved using separate injectors. Spontaneous pain evoked by the compounds was assessed by measuring the time (s) the mice spent on licking. For the HC030031 groups, 200 mg kg^−1 HC030031 was intragastrically administered, and then the test was conducted after 1 h. The testing phase was divided into two parts: 0–10 min and 11–60 min.

[5] = system: hens; type: in vivo, hen; conditions: hens
Procedure: The chosen adult Hyline Brown hens were raised individually in stainless steel wire cages. After 7 days of acclimatization, the chosen hens were randomly divided into groups (n=6–10 for each group). The hens in the delayed neuropathy groups were administered a single dose of 750 mg kg^−1 TOCP and repeated doses of 75 mg kg^−1 malathion by gavage. TOCP and malathion were dissolved in corn oil and administered at 0.65 ml kg^−1. In the HC030031 treatment groups, 100 mg kg^−1 HC030031 was administered by gavage daily beginning at day 0 or day 11. All hens were examined daily for signs of delayed neurotoxicity. A five-point graded scale was used to describe the clinical symptoms of delayed neuropathy, with 0 indicating normal ambulation; (1) suspected ataxia (lack of strength in the legs and tottering); (2) mild ataxia (slow, clumsy and unsteady gait); (3) gross ataxia (waddling gait and staggering and falling despite being active); (4) mild paralysis (typical paralytic posture and lame appearance); and (5) complete paralysis (unable to maintain posture, stand up or move at all), as described previously.

[6] = system: hens; experiment: Transmission electron microscopy of hen spinal cord and sciatic nerve; type: in vivo
Procedure: For hens, the animals were anesthetized with sodium pentobarbital (100 mg kg^−1) and killed 21 days after exposure to TOCP and malathion. They were then perfused with normal saline followed immediately by 4% paraformaldehyde. The lumbar spinal cord at approximately the L2-L3 level and the sciatic nerve of the left leg were removed and fixed by immersion in ice-cold 2.5% glutaraldehyde. Subsequently, the samples were post-fixed in 1% OsO4 for 1 h, dehydrated with the ethanol series, and embedded in epon resin. Sixty-nanometer ultra-thin sections were double stained with lead citrate and uranyl acetate and examined with an electron microscopy.

[7] = HC030031 200 mg kg−1 per oral, 1 h before test
[8] = 30 μM, calcium-free external solution

T1 sequence (O75762 whole entry): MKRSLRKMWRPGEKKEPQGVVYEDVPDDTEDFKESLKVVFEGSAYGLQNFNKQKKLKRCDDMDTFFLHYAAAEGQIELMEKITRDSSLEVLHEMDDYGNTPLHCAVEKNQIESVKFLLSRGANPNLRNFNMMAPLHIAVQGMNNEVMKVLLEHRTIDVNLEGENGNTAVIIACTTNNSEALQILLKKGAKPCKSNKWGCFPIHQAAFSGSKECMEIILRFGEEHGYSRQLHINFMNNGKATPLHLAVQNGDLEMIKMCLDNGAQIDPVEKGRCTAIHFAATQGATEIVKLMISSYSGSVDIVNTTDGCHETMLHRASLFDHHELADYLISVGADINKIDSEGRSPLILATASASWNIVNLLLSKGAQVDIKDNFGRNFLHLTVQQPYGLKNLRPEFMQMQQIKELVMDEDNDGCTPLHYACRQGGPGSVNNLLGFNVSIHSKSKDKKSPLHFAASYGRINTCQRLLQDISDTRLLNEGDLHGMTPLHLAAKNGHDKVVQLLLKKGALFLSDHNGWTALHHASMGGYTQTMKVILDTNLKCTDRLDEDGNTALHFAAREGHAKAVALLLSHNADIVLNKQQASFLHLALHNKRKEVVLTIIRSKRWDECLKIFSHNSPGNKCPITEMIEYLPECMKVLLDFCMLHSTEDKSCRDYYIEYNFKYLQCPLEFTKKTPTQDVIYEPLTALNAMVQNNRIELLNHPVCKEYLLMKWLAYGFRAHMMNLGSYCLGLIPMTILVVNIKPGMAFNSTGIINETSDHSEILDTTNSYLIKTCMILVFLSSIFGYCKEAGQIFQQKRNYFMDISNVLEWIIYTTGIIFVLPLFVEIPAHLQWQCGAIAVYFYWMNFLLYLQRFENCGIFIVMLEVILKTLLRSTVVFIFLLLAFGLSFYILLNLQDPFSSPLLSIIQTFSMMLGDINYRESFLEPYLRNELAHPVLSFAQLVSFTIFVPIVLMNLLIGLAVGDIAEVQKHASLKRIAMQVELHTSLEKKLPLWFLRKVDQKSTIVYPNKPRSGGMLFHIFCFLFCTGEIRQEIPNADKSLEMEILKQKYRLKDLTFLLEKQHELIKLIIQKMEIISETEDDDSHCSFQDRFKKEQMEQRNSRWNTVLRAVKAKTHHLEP
T2 sequence (Q6RI86 whole entry): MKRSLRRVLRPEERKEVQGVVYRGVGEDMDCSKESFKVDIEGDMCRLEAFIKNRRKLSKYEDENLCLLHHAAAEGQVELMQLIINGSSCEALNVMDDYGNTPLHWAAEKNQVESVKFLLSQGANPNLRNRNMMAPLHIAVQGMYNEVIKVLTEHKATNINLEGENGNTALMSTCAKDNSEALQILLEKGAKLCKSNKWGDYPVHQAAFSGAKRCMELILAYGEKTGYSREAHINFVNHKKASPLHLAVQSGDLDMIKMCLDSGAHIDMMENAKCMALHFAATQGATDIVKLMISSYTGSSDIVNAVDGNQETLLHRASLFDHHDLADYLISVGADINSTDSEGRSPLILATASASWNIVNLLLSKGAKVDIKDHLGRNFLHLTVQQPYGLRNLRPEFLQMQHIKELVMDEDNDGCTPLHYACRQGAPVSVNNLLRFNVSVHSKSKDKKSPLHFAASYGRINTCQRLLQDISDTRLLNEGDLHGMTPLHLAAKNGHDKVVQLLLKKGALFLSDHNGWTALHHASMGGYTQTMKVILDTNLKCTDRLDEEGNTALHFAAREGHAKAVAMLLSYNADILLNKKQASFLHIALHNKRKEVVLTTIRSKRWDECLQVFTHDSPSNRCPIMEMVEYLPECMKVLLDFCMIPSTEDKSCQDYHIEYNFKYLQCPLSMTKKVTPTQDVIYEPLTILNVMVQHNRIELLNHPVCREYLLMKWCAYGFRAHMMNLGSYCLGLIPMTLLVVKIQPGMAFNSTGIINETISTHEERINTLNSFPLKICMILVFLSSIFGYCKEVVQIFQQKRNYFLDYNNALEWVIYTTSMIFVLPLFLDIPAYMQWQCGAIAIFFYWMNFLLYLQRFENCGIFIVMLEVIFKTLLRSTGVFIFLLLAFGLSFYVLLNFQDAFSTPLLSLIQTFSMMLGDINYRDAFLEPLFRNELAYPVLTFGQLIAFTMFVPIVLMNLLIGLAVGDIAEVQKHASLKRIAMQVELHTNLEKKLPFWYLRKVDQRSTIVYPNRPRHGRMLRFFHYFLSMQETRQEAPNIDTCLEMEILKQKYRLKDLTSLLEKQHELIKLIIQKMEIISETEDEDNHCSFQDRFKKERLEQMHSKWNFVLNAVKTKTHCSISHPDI

Row | Structure (SMILES) | block of agonist-elicited hTRPA1 currents [1] | block of agonist-elicited rTRPA1 currents ([2]; 10 μM HC030031, malathion or TOCP as agonist) | effect on AITC- or malathion-elicited action potentials ([3]; 10 μM HC030031) | inhibition of malathion-induced inward currents in DRG neurons ([3]; 10 μM HC030031) | effect on AITC-evoked nocifensive behavior [4, 7] | effect on malathion-evoked nociception-like behavior [4, 7] | effect on clinical signs of delayed neuropathy induced by TOCP or malathion ([5]; HC030031 100 mg kg−1 daily by gavage from day 0 or day 11) | effect on TOCP- or malathion-induced nerve injuries (TEM) ([6]; HC030031 100 mg kg−1) | activation of hTRPA1 whole-cell currents [1, 8] | EC50 ([1]; whole-cell patch-clamp) | activation of rTRPA1 whole-cell currents [2, 8] | action potential firing in WT small-diameter neurons ([3]; 100 μM) | currents in neurons from Trpa1−/− mice ([3]; Trpa1−/− neurons, 17/17) | neurons with robust inward currents ([3]; small-diameter neurons from WT mice, 7/18) | nociception-like behavior in Trpa1−/− mice ([4]; Trpa1−/− mice, 30% malathion intraplantar) | nocifensive behavior (paw-licking) after plantar injection ([4]; WT mice, AITC 10 μl 5%, malathion 10 μl 30%, intraplantar) | clinical symptoms of delayed neuropathy ([5]; malathion 75 mg kg−1 q.d. for 11 days, day 5) | damage of spinal cord and sciatic nerve (TEM) ([6]; 21 days after exposure)
1 | CC(C)c1ccc(NC(=O)Cn2cnc3c2c(=O)n(C)c(=O)n3C)cc1 [HC030031] | blocked; also recorded: inhibited | blocked | suppressed | inhibited | suppressed | blocked | significantly alleviated | significantly reduced | – | – | – | – | – | – | – | – | – | –
2 | CCOC(=O)CC(SP(=S)(OC)OC)C(=O)OCC (stereo not drawn) [malathion, S-[1,2-bis (ethoxycarbonyl)ethyl] O, O-dimethyl phosphorodithioate] | – | – | – | – | – | – | – | – | large activation current | 14.2 ± 1.84 µM | large activation current | bursts of action potentials | failed to induce currents | ~ 39% | not observed | nociception-like behavior | slow and clumsy gait | severely damaged the spinal cord and sciatic nerve
